Laboratory results taken from patent US9682928B2 (NeuroPro Therapeutics, Inc., priority 2009, dated 2017).
“Also recorded” adds a separate entry of the source.

Assays:
Rat [1] = assay: MES (Rat); type: in vivo
Male Rj: NMRI mice = assay: Formalin paw test (late phase) in the mouse; type: in vivo; settings: for Antinociception compared to gabapentin (584 μmol/kg; 100 mg/kg): late phase, at highest two doses (NTP-2014, NTP-2024) or highest dose (NTP-2026, Bumetanide)
Method: The method described herein detects analgesic/anti-inflammatory activity, generally used to test compounds for pain relief, in particular diabetic neuropathy or nociceptive neuropathy. See Wheeler-Aceto, et al. (1991) Psychopharmacology 104: 35-44.
Mice were given an intraplantar injection of 5% formalin (25 μl) into the posterior left paw. This treatment induces paw licking in control animals. Mice were briefly observed at 1 minute intervals between 15 and 50 minutes after the injection of formalin and the number of occasions that the mice were observed licking the injected paw was recorded. There were 10 mice per group and the test was performed “blind.”
The experiment included 11 groups. Data was analyzed by comparing treated groups with vehicle control using unpaired Mann-Whitney U tests.
Gabapentin (100 mg/kg i.p.) administered under the same experimental conditions, was used as reference substance. The experiment included several groups. Data was analyzed by comparing treated groups with vehicle control using unpaired Mann-Whitney U tests.

Mice = assay: 6 Hz (Mice); type: in vivo
Male CD-1 mice = assay: 52° C. warm water tail-flick test (acute nociceptive study); type: in vivo, mouse; settings: for Activity in tail-flick test: all doses starting at 32 mg/kg (NTP-2014) or 56 mg/kg (NTP-2026, NTP-2024); for % Antinociception: A50 not determined
Excerpt: Subjects: Male CD-1 (25-35 g, Charles River) were used for all studies. Mice were housed in groups of five in Plexiglas chambers with food and water available ad libitum. All animals were maintained on a 12 hr light/dark cycle (lights on at 7:00 AM) in a temperature- and humidity-controlled animal colony. The health status of the animals used in this study were examined on arrival. Only animals in good health were acclimatized to laboratory conditions and used in the study. The acclimation period to the vivarium was a minimum of 7 days. All animal experiments were performed under an approved protocol in accordance with institutional guidelines and in accordance with the Guide for the Care and Use of Laboratory Animals as adopted and promulgated by the National Institutes of Health.
Behavioral Testing: Efficacy of the test compounds were assessed using the 52° C. warm water tail-flick test. The latency to the first sign of a rapid tail-flick was taken as the behavioral endpoint (Jannsen, et al. 1963). Each mouse was first tested for baseline latency by immersing its tail in the water and recording the time to response. Mice not responding within 5 seconds were excluded from further testing. Test compounds were then injected and the mice were rested for thermal latencies at 10, 20, 30, 45, 60, 90, 120 and 180 minutes post-injection (if a drug effect dropped below 20% for the group average then the testing was halted for that group). Antinociception was calculated by the following formula: % Antinociception=100×(test latency−control latency)/(10-control latency). A maximum score was assigned (100%) to animals not responding within 10 seconds to avoid tissue damage.
Preparation of Test Materials: NTP-2014 (m.w. 420.52 for free base; lot number: 004JXS047) was dissolved in 0.2% hydroxypropylmethylcellulose (HPMC) in physiological saline to yield final concentrations of between 3.2 and 10 mg/ml (pH ˜7.4). NTP-2024 (m.w. 433.52 for free base; lot number: 024DGM048) was dissolved in 0.2% HPMC in physiological saline to yield final concentrations of between 5.6 and 18 mg/ml (pH ˜7.4). NTP-2026 (m.w. 462.61 for free base; lot number: 002JRA064) was first dissolved in 100% ETOH (10× solution) and then this stock solution was diluted to final concentrations of 5.6-10 mg/ml using 0.2% HPMC in physiological saline (pH ˜7.4). Final ETOH concentration was approximately 10%. Tween 80 (1-2 drops) was added to all solutions to aid in solubilization of compounds.
All groups contained n=8-10 mice.

Rat [2] = assay: Exploratory Bennett neuropathic pain (rat), plus inhibitor; type: in vivo
[3] = doses up to 200 mg/kg, no metabolic inhibitor coadministered
[4] = i.p. 30 minutes before the test, 50 μmol/kg (NTP-2006 23.9, NTP-2024 21.7, NTP-1007 19.3, NTP-2014 21, NTP-2026 23.1 mg/kg)
[5] = i.p., 250 μmol/kg (NTP-2006 119, NTP-2024 108, NTP-1007 96.5, NTP-2014 105, NTP-2026 116 mg/kg)
[6] = i.p., 500 μmol/kg (NTP-2006 239, NTP-2024 217, NTP-1007 193, NTP-2014 210, NTP-2026 231 mg/kg)

Row | Compound | Decrease in pain, Formalin Paw Test (Mice) - Late Phase (Male Rj: NMRI mice; at 50, 250, 500 μmol/kg) | Antinociception compared to gabapentin (584 μmol/kg; 100 mg/kg) (Male Rj: NMRI mice) | Toxicity in 6 Hz study (Mice; 100 mg/kg) | Activity in tail-flick test (Male CD-1 mice; mice) | Licking Score (15 to 50 minutes post-formalin injection) % Change from Control (Male Rj: NMRI mice; [4]) | Licking Score (15 to 50 minutes post-formalin injection) % Change from Control (Male Rj: NMRI mice; [5]) | Licking Score (15 to 50 minutes post-formalin injection) % Change from Control (Male Rj: NMRI mice; [6]) | Activity against tactile allodynia (Rat [2]) | Decrease in pain, Formalin Paw Test (Mice) - Late Phase (Male Rj: NMRI mice; at 250, 500 μmol/kg) | further results
1 | CCCCNc1cc(C(=O)O)cc(S(N)(=O)=O)c1Oc1ccccc1 [Bumetanide, reference compound] | Significant decrease in pain at 50 (p < 0.05), 250 (p < 0.01), | 500 (p < 0.001 ) μmol/kg; 18.2, 91.1, 182 mg/kg; better |  |  |  |  |  |  |  | Activity in MES (Rat [1]; [3]): No activity at doses up
2 | CCCCN(CCCC)c1cc(C(=O)O)cc(S(N)(=O)=O)c1Oc1ccccc1 [NTP-2014, 3-Aminosulfonyl-5-N,N-dibutylamino-4-phenoxybenzoic acid] | Significant decrease in pain at 50 (p < 0.05), 250 | much better than gabapentin (584 μmol/kg; 100 mg/kg) | mg/kg. No toxicity. | effective analgesic effects; also recorded: Significant activity in tail- | −38% | −99% | −90% | Significant effects against tactile allodynia |  | Suppression / activity in 6 Hz (Mice; 100 mg/kg, NTP-2014: all animals to 1 h, majority through 4 h, NTP-2026: 2 timepoints (2 hr, 4 hr)): Complete; % anti-nociception relative to high dose morphine (Male CD-1 mice; tail-flick test, mice, without behavioral observations): nociception equal to high; Significant adverse events (Rat [1]; 100 mg/kg): seen at 300 mg/kg. No; Toxic effects (Rat [1]; 300 mg/kg): mg/kg. Toxic effects; Rats with complete suppression (Rat [1]; at 4 hr, 100 mg/kg): at 4 hr in 2/3 rats at 100
3 | CCCCNc1cc(C(=O)NN2CCOCC2)cc(S(N)(=O)=O)c1Oc1ccccc1 [NTP-2024, N-Morpholinyl 3-Aminosulfonyl-5-N-butylamino-4-phenoxybenzamide] |  | (p < 0.05) μmol/kg; 108, 217 mg/kg; slightly less |  | Significant activity in tail- | −1% | −51% | −41% | Dose-related activity against tactile | Significant decrease in pain at 250 (p < 0.01), 500 | Activity in 6 Hz (Mice; [3]): No activity at doses; % Antinociception (Male CD-1 mice; 180 mg/kg): ~48%; Licking Score % Pain Decrease (Male Rj: NMRI mice; 50 μmol/kg i.p.): 1%; Licking Score % Pain Decrease (Male Rj: NMRI mice; 250 μmol/kg i.p.): 51%; Licking Score % Pain Decrease (Male Rj: NMRI mice; 500 μmol/kg i.p.): 41%; Anti-inflammatory and analgesic effects in formalin paw test (FIG. 16) (Male Rj: NMRI mice; 50, 250, 500 μmole/kg): show anti-inflammatory and analgesic effects
4 | CCCCNc1cc(C(=O)N(C)CCCN(C)C)cc(S(N)(=O)=O)c1Oc1ccccc1 [NTP-2026, N-(3-(Dimethylamino)propyl)-N-methyl 3-Aminosulfonyl-5-N-butylamino-4-phenoxybenzamide] |  |  | No toxicity. | Significant activity in tail- | no effects | −49% | −82% | Very low doses tested, no significant | Significant decrease in pain at 250 (p < 0.01), 500 | % Antinociception (Male CD-1 mice; 56 mg/kg): ~25%; Activity in MES (Rat [1]; 30, 100, 330 mg/kg): No activity at 30, 100,
